The record followed here is US4160026A (priority 1976, dated 1979).

For series [1], the system named is cell-mediated immunity. Put plainly: Cell-mediated immunity, delayed hypersensitivity (picryl chloride) in Sarcoma 180-inoculated mice. It is filed as in vivo, ICR-JCL strain mice. The following applies: 75 mg/kg. The protocol:
The tests were carried out by the following procedure: groups of ICR-JCL strain mice (six male mice per group, average body weight 31.9±3 g.) were inoculated with the ascites tumor "Sarcoma 180" (10^6 cells). 24 Hours after the inoculation of the tumor cells, each of the drug samples to be tested was subcutaneously administered and a known anti-tumor agent (cyclophosphamide) was intraperitoneally administered to the inoculated mice. Two days after the inoculation, an ethanolic solution of 5% picryl chloride was applied onto the hair-shaved abdomen of the mice to establish the sensitization. Subsequently, each drug sample under test was subcutaneously administered once a day for the successive four days. 4 Days after the inoculation, cyclophosphamide was again administered. Nine days after the inoculation, a solution of 1% picryl chloride in olive oil was challenged onto the two sides of both ears of the mice to establish the secondary sensitization. 24 Hours after the secondary sensitization, the degree (%) of increase in thickness of the ears was calculated for the test mice. The extent of the swelling which serves as a measure of stimulating cell-mediated immunity involved can be evaluated from the percentage increase in the ear thickness.

Series [2] relates to Sarcoma 180. Put plainly: Solid tumor of Sarcoma 180, treatment after inoculation. It is filed as in vivo, ICR-strain mice. The following applies: 2 mg/kg, i.p., 5 days after inoculation. The protocol: In a separate experiment, male ICR-strain mice (five in each group with an average body weight of 20±2 g) were inoculated in the flank with 7×10^6 live tumor cells of Sarcoma 180 in 0.05 ml. After 24 hours, each group of mice was treated by intraperitoneal injection of 0.1 ml. of saline or sample dissolved in saline for 5 consecutive days. Seven days after the inoculation, all mice were sacrificed and the primary subcutaneous tumor excised and weighed.
In the above table, degree (%) of inhibition to the growth of tumor was calculated according to the following equation: [formula]

Series [3] can be described thus: Solubility. It is filed as physicochemical.
The subject of series [4] is various bacteria. As to the kind of experiment: Antibacterial activity with combined use of maltose or maltodextrin. It is filed as cell-based. Conditions: under the above-mentioned testing conditions. The procedure: These paper discs were placed on an upper plate layers of the known mycin-assay incubation medium comprising 0.5% peptone, 0.3% meat extract and 1.5% agar (pH 6) which contained the test microorganism to be incubated therein and which was laid over the lower layer of agar medium in the assaying dish. The incubation was made at a temperature of 37° C. overnight, and subsequently the diameter of the inhibition zones formed around the paper discs was measured. […] These tests were repeated in the same manner as above but with additional incorporation of 1.25 mg/cc of maltotriose into the upper plate layer of the mycin-assay incubation medium.

Turning to `O=P1(N(CCCl)CCCl)NCCCO1` (stereo not shown) [Cyclophosphamide, N,N-bis (2-chloroethyl)tetrahydro-2H-1,3,2-oxazophosphorin-2-amine-2-oxide], the “Degree of increase in ear thickness” value in series [1] is listed as 4.0 ± 2.60 ×10^-3 cm. The compound further showed a percentage increase in series [1] (untreated = 100.0) of 51.9%.

As to `CO[C@@]12[C@H](COC(N)=O)C3=C(C(=O)C(C)=C(N)C3=O)N1C[C@@H]1N[C@@H]12` [Mitomycin C, mitomycin C], in series [2], the “Degree (%) of inhibition to tumor growth” value stood at 45% and the Tumor weight is 0.43 g.

As to `OC[C@H]1O[C@H](O[C@H]2[C@H](O)[C@@H](O)[C@@H](O[C@H]3[C@H](O)[C@@H](O)[C@@H](O[C@H]4[C@H](O)[C@@H](O)[C@@H](O[C@H]5[C@H](O)[C@@H](O)[C@@H](O[C@H]6[C@H](O)[C@@H](O)C(O)O[C@@H]6CO)O[C@@H]5CO)O[C@@H]4CO)O[C@@H]3CO)O[C@@H]2CO)[C@H](O)[C@@H](O)[C@@H]1O` (stereo partly shown) [maltohexaose], the Solubility result in series [3] (in acetone) is “not soluble”; in series [3] (in ethanol), “not soluble”; in series [3] (in methanol), “sparingly soluble”; in series [3] (in water), “readily soluble”.

For the compound `OC[C@H]1O[C@H](O[C@H]2[C@H](O)[C@@H](O)[C@@H](O[C@H]3[C@H](O)[C@@H](O)[C@@H](O[C@H]4[C@H](O)[C@@H](O)[C@@H](O[C@H]5[C@H](O)[C@@H](O)C(O)O[C@@H]5CO)O[C@@H]4CO)O[C@@H]3CO)O[C@@H]2CO)[C@H](O)[C@@H](O)[C@@H]1O` (stereo partly shown) [maltopentaose], the Solubility result in series [3] (in acetone) is “not soluble”; in series [3] (in ethanol), “not soluble”; in series [3] (in methanol), “sparingly soluble”; in series [3] (in water), “readily soluble”.

As for `OC[C@H]1O[C@H](O[C@H]2[C@H](O)[C@@H](O)[C@@H](O[C@H]3[C@H](O)[C@@H](O)C(O)O[C@@H]3CO)O[C@@H]2CO)[C@H](O)[C@@H](O)[C@@H]1O` (stereo partly shown) [maltotriose], the “Antibacterial activity of maltodextrins alone” value in series [4] is “do not exhibit any antibacterial activity”.
